Test results: ChEMBL document CHEMBL1649335, “Discovery of {1-[4-(2-{hexahydropyrrolo[3,4-c]pyrrol-2(1H)-yl}-1H-benzimidazol-1-yl)piperidin-1-yl]cyclooctyl}methanol, systemically potent novel non-peptide agonist of nociceptin/orphanin FQ receptor as analgesic for the treatment of neuropathic pain: design, synthesis, and structure-activity …” (Bioorg Med Chem, 2010)
The source made the active and inactive calls.

Key:
Rattus norvegicus [1] = experiment: Antiallodynic activity against von Frey hair mechanically stimulated neuropathic pain in sc dosed Sprague-Dawley rat assessed as assessed as minimum effective dose to increase of response threshold after 4 hrs; assay type: functional, organism-based
[2] = biological target: Acetylcholinesterase (Homo sapiens) (UniProt P22303); experiment: Inhibition of human acetylcholine esterase at 1 uM relative to control
[3] = biological target: D(1A) dopamine receptor (Homo sapiens) (UniProt P21728); experiment: Inhibition of human dopamine D1 receptor at 1 uM relative to control
Rattus norvegicus [4] = experiment: Antiallodynic activity against von Frey hair mechanically stimulated neuropathic pain in Sprague-Dawley rat assessed as effect on allodynia in contralateral paw at 5.5 to 170 nmol/site administered intrathecally after 20 mins; assay type: functional, organism-based
[5] = biological target: L-type calcium channel, verapamil site (Rattus norvegicus, UniProt P22002+P27732+Q02485); experiment: Inhibition of rat L-type calcium channel verapamil site at 1 uM relative to control
Rattus norvegicus [6] = experiment: Antiallodynic activity against von Frey hair mechanically stimulated neuropathic pain in Sprague-Dawley rat assessed as effect on allodynia in contralateral paw at 5.5 to 170 nmol/site, icv after 20 mins; assay type: functional, organism-based
[7] = biological target: Histamine H1 receptor (Cavia porcellus) (UniProt P31389); experiment: Inhibition of guinea pig histamine H1 receptor at 1 uM relative to control
[8] = Drug level Sprague-Dawley rat spinal cord at 10 mg/kg, sc after […]; assay type: ADME, organism-based; set-up: dose 10 mg/kg, route subcutaneous; conditions: read-out: Drug uptake
Rattus norvegicus [9] = experiment: Antiallodynic activity against von Frey hair mechanically stimulated neuropathic pain in sc dosed Sprague-Dawley rat assessed as increase of response threshold; assay type: functional, organism-based
[10] = biological target: Substance-K receptor (Homo sapiens) (UniProt P21452); experiment: Inhibition of human tachykinin NK2 receptor at 1 uM relative to control
Nociceptin receptor [11] = biological target: T1, Nociceptin receptor (Homo sapiens, UniProt P41146); experiment: biochemical
Rattus norvegicus [12] = organism: Rattus norvegicus; experiment: Inhibition of rat phospholipase C at 1 uM relative to control
[13] = Drug level Sprague-Dawley rat plasma at 10 mg/kg, sc after […]; assay type: ADME, organism-based; set-up: dose 10 mg/kg, route subcutaneous; conditions: read-out: Drug uptake
Rattus norvegicus [14] = organism: Rattus norvegicus; experiment: Inhibition of rat GABA transporter at 1 uM relative to control
[15] = biological target: Histamine H2 receptor (Cavia porcellus) (UniProt P47747); experiment: Inhibition of guinea pig histamine H2 receptor at 1 uM relative to control
Rattus norvegicus [16] = experiment: Toxicity in von Frey hair mechanically stimulated neuropathic pain Sprague-Dawley rat model assessed as sedation effect at up to 170 nmol/site, icv; assay type: organism-based; conditions: in vivo, icv_or_intrathecal
Nociceptin receptor [17] = biological target: T1, Nociceptin receptor
Rattus norvegicus [18] = experiment: Antiallodynic activity against von Frey hair mechanically stimulated neuropathic pain in sc dosed Sprague-Dawley rat assessed as increase of response threshold after 2 hrs; assay type: functional
Rattus norvegicus [19] = experiment: Antiallodynic activity against von Frey hair mechanically stimulated neuropathic pain in Sprague-Dawley rat assessed as assessed as minimum effective dose to increase of response threshold per site at 5.5 to 170 nmol/site, icv after 1 hr; assay type: functional, organism-based
Homo sapiens = organism: Homo sapiens; experiment: Inhibition of human muscle-type nicotinic acetylcholine receptor at 1 uM relative to control
Rattus norvegicus [20] = experiment: Toxicity in von Frey hair mechanically stimulated neuropathic pain Sprague-Dawley rat model assessed as sedation effect at up to 170 nmol/site, administered intrathecally; assay type: organism-based; conditions: in vivo, icv_or_intrathecal
Rattus norvegicus [21] = experiment: Antiallodynic activity against von Frey hair mechanically stimulated neuropathic pain in Sprague-Dawley rat assessed as effect on allodynia in contralateral paw at 1 to 30 mg/kg, sc after 1 hr; assay type: functional, organism-based
[22] = biological target: Tyrosine 3-monooxygenase (Rattus norvegicus) (UniProt P04177); experiment: Inhibition of rat tyrosine hydroxylase at 1 uM relative to control
[23] = biological target: L-type calcium channel, diltiazem site (Rattus norvegicus, UniProt P22002+P27732+Q02485); experiment: Inhibition of rat L-type calcium channel diltiazem site at 1 uM relative to control
Rattus norvegicus [24] = experiment: Antiallodynic activity against von Frey hair mechanically stimulated neuropathic pain in Sprague-Dawley rat assessed as increase of response threshold per site at 170 nmol/site administered intrathecally after 1 hr relative to control; assay type: functional
Rattus norvegicus [25] = organism: Rattus norvegicus; experiment: Inhibition of rat K+ATP channel at 1 uM relative to control

T1 sequence (P41146 whole entry): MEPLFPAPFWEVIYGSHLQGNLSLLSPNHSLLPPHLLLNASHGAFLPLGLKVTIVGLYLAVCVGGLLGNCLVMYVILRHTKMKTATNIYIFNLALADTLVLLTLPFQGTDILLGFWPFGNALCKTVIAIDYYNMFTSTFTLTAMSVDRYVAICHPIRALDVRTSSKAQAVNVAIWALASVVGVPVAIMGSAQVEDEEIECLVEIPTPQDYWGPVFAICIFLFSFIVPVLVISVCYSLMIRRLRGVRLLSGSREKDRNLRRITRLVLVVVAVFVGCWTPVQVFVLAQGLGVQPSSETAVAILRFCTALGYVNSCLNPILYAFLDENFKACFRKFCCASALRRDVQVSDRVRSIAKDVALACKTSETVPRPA
Chain of Substance-K receptor (Homo sapiens) (P21452 whole entry): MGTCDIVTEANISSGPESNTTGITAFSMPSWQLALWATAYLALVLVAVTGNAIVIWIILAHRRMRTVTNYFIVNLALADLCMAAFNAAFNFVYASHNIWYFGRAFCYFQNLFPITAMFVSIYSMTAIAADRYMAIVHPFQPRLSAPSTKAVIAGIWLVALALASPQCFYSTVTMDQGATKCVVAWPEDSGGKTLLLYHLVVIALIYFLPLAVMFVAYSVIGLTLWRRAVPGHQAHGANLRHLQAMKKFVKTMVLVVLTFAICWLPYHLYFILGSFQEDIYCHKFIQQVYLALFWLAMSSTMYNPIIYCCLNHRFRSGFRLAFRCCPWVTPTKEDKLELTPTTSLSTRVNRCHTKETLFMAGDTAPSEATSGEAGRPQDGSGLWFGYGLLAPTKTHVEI
Chain of Acetylcholinesterase (Homo sapiens) (P22303 whole entry): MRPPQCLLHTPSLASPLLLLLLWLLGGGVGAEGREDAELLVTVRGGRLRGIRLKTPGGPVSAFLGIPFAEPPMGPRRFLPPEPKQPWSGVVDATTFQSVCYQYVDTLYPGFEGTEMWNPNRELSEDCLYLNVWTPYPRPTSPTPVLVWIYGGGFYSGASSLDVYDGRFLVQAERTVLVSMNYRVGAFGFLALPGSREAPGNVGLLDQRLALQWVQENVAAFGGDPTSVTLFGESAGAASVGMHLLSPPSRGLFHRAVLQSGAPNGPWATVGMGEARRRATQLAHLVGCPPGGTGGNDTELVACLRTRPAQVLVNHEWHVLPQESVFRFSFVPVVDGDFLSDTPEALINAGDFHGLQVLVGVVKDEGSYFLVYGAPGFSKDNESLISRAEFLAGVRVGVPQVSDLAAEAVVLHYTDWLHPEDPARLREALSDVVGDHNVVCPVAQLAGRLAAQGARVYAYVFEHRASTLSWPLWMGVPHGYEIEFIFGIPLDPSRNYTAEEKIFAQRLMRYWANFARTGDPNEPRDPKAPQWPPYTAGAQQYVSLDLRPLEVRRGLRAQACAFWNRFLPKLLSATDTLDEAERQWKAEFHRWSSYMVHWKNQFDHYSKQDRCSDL
Chain of D(1A) dopamine receptor (Homo sapiens) (P21728 whole entry): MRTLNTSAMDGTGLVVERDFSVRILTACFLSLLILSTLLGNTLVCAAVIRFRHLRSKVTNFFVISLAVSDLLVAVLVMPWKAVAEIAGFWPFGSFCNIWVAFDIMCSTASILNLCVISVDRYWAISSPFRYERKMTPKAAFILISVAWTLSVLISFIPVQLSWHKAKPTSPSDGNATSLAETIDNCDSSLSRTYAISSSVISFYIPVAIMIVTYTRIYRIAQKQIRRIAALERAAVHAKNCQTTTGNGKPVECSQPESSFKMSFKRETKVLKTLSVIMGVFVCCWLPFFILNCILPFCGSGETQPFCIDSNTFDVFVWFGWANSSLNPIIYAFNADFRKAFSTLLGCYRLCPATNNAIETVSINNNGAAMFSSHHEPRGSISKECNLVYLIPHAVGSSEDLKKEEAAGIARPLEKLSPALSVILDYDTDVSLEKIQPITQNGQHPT
Chain of Tyrosine 3-monooxygenase (Rattus norvegicus) (P04177 whole entry): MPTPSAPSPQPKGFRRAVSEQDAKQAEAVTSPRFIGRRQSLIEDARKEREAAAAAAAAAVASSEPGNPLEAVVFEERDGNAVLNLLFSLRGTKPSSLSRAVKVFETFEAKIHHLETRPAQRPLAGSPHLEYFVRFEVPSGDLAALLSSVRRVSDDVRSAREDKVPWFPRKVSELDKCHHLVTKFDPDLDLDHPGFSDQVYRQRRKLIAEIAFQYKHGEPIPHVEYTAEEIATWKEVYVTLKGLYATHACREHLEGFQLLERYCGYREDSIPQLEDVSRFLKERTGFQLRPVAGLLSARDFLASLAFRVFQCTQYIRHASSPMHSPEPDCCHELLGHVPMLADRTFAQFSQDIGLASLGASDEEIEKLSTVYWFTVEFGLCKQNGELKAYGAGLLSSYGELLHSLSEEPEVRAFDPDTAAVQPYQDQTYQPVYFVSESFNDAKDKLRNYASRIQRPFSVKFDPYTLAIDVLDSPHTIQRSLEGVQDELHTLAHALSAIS
Chain of Histamine H2 receptor (Cavia porcellus) (P47747 whole entry): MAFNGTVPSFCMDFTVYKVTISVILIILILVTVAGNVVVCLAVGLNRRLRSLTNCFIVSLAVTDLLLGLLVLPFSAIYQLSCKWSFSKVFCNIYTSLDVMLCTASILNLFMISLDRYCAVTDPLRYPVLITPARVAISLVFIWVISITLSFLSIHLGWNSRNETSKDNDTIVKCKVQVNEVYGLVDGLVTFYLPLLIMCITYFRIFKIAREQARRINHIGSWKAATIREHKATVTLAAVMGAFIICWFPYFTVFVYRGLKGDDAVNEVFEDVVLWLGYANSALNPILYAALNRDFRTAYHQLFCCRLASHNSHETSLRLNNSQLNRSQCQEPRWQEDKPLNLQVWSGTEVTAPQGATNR
Chain of Histamine H1 receptor (Cavia porcellus) (P31389 whole entry): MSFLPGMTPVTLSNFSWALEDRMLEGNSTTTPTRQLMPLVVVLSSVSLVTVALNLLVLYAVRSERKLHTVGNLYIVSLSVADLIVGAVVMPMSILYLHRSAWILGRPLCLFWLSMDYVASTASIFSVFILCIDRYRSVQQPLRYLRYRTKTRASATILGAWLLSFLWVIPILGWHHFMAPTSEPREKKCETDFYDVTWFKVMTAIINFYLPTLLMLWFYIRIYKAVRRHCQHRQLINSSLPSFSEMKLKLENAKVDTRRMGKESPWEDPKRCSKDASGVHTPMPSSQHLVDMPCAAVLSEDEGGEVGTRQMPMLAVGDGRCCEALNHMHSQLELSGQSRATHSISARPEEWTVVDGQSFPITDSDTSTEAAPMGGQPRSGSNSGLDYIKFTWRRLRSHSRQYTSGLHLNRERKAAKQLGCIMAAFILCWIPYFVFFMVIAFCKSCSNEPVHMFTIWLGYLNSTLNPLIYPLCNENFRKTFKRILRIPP

## OCC1(N2CCC(n3c(N4CC5CNCC5C4)nc4ccccc43)CC2)CCCCCCC1 (stereo unspecified)
Rattus norvegicus [1]
  MED: inactive
[2]
  inhibition: < 10%
[3]
  inhibition: < 10%
Rattus norvegicus [4]
  Activity: inactive
[5]
  inhibition at 1 µM: < 10%
Rattus norvegicus [6]
  Activity: inactive
[7]
  inhibition: < 10%
[8]
  concentration at […]: 63 ng/mL
Rattus norvegicus [9]
  Activity: Dose-dependent effect
[10]
  inhibition: < 10%
Nociceptin receptor [11]
  Ki: 1.44 nM
Rattus norvegicus [12]
  inhibition: < 10%
[13]
  concentration at […]: 504 ng/mL
Rattus norvegicus [14]
  inhibition: 24%
[15]
  inhibition: 22%
Rattus norvegicus [16]
  Activity: Non-toxic
Nociceptin receptor [17]
  EC50: 12 nM
Rattus norvegicus [18]
  ED50: > 30 mg/kg
Rattus norvegicus [19]
  MED: inactive
Homo sapiens
  inhibition: 21%
Rattus norvegicus [20]
  Activity: Non-toxic
Rattus norvegicus [21]
  Activity: inactive
[22]
  inhibition: < 10%
[23]
  inhibition at 1 µM: 18%
Rattus norvegicus [24]
  Activity: 45.5%
Rattus norvegicus [25]
  inhibition: < 10%
